Converted amounts (≈) assume the structure as drawn. “And” between values parts separate entries of the source, which are not always exact repeats. Identical values can stand only once.
Legend:
[1] = target: T1, S. aureus ATCC 29213 FabI (Staphylococcus aureus, UniProt Q6GI75); test: Staphylococcus aureus FabI enzyme inhibition assay; format: biochemical; conditions: read-out: FabI (300.235) IC50 (converted)
T1 sequence (Q6GI75 1-256): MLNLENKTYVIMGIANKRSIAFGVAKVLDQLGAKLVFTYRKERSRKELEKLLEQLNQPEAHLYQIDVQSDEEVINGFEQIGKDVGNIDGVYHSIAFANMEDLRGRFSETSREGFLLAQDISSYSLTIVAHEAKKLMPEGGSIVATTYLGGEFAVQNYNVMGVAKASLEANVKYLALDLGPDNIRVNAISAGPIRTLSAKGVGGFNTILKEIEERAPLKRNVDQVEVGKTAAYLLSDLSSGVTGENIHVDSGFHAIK
Procedure: Y.1 FabI Enzyme Inhibition: Staphylococcus aureus FabI Enzyme Inhibition Assay
FabI enzyme inhibition assays were carried out in half-area, 384-well microtitre plates. Compounds were evaluated in 40-μl assay mixtures containing 100 mM NaADA, pH 6.5 (ADA=N-[2-acetamido]-2iminodiacetic acid), 250 μM crotonoyl-CoA, 625 μM NADH and 50 μg/ml S. aureus ATCC 29213 FabI. Inhibitors were typically varied over the range of 50 to 0.39 μM. The reaction mixtures were incubated for 30 minutes at room temperature and the reaction was stopped by adding 200 mM Tris buffer (pH 9.0) to create a pH-shift. The consumption of NADH was monitored by measuring the change in absorbance at […]. By comparing sample readings to those of negative (absence of compound) and positive (absence of enzyme) controls, the percent inhibition of enzymatic activity of the compounds was determined A best-fit curve is fitted by a minimum of squares method. From this an IC50-value (expressed in μg/ml), resulting in 50% inhibition of enzymatic activity, was obtained.

[2] = Cytotoxicity MTT assay (HELAM); format: cell-based, Human; conditions: human, HelaM cells, read-out: HELAM (222.125) CC50
Procedure: Cytotoxicity of the compounds was evaluated using the MTT assay. Human HelaM cells grown in 96-well plates were exposed to serial dilutions of the tested compounds (final volume of 0.2 ml) and incubated for 72 hours at 37° C. and 5% CO2. Inhibitors are typically varied over the range of 25 to 0.8 μM. The final DMSO concentration in the assay is 0.5%. MTT (3-(4,5-Dimethylthiazol-2-yl)-2,5-diphenyltetrazolium bromide, a tetrazole) was added and reduced to purple formazan only in living cells. Solubilization of the formazan crystals was achieved by adding 100 μl 2-propanol. Cell viability was determined by measuring the absorbance of the reduced formazan, giving a purple color, at 540 nm and 690 nm. The absorbance measured at 690 nm was automatically subtracted from the absorbance at 540 nm, to eliminate the effects of non-specific absorption. The percent cytotoxicity achieved by the compounds was calculated according to standard methods. Cytotoxicity is reported as CC50, the concentration that causes a 50% reduction in cell viability.
The results are depicted in the table(s) below (HELAM).

[3] = tested on: Staphylococcus aureus ATCC 29213; test: Antibacterial susceptibility testing, IC90 determination (STA); format: cell-based; conditions: resazurin; for IC90: Staphylococcus aureus, ATCC29213, Staphylococcus aureus ATCC 29213, broth microdilution, read-out: STA (361.159) IC90
Procedure: (§1) The following bacteria were used: Staphylococcus aureus ATCC 29213, methicillin-resistant Staphylococcus aureus (MRSA) ATCC 700788 and Escherichia coli ATCC 35218. The bacteria used in this study were grown overnight in flasks containing 100 ml Mueller-Hinton broth (Difco cat. nr. 0757-17) in sterile de-ionized water, with shaking, at 37° C. Stocks were store at −70° C. until use.
(§2) Bacteria were incubated on a tryptic soy agar plate containing 5% sheep blood (Becton Dickinson cat. nr. 254053) for 18-24 hours at 35° C. in aerobic conditions (first passage). For the second passage, fresh Mueller-Hinton broth is inoculated with 5-10 colonies and grown overnight at 35° C. until turbidity (reaching log-phase) in aerobic conditions is reached. The bacterial suspension is then adjusted to 0.5 McFarland density and further diluted 1:100 in Mueller Hinton broth medium. This is used as inoculum.
The result(s) are depicted the table below (for STA ATCC 29213).
(§3) MIC assays were performed by the broth microdilution method in a 96-well format (flat-bottom microtitre plates) with a final volume of 0.1 ml Mueller Hinton broth containing two-fold serial dilutions of compounds and inoculated with 5×10^5 CFU/ml of bacteria (standard inoculum size according to CLSI guidelines). Inhibitors are typically varied over the range of 63 to 0.49 μM. The final DMSO concentration in the assay was 1.25% (maximum tolerable DMSO concentration=6%). In the assays where the effect of human serum on the activity of the compounds against S. aureus was tested, human serum was added at a final concentration of 10%. The plates were incubated at 35° C. for 16-20 hours. At the end of incubation the bacterial growth was quantified fluorometrically. For this, resazurin was added to all wells and the plates were re-incubated. The incubation time is dependent on the type of bacteria. A change in color from blue to pink indicated the growth of bacteria. The fluorescence was read in computer-controlled fluorometer (Fluoroskan Ascent FL, Labsystems) at an excitation wavelength 540 nm and an emission wavelength of 590 nm. The % growth inhibition achieved by the compounds was calculated according to standard methods. The IC90 (expressed in μg/ml) was defined as the 90% inhibitory concentration for bacterial growth. A panel of reference compounds were simultaneously tested for QC approval.

S. aureus = test: Antibacterial susceptibility testing, IC90 determination with 10% human serum (STA + 10% HS); format: cell-based, Staphylococcus aureus; conditions: Staphylococcus aureus, human serum at final concentration of 10%, read-out: STA + 10% HS (361.169) IC90
Procedure: as §1, §2, §3
The results are depicted in the table(s) below (STA+10% HS).

Compound | IC50 [1] | IC90 [3] | IC90 (S. aureus) | melting point | STA (361.159) IC90 ([3]; Staphylococcus aureus ATCC 29213, broth microdilution) | CC50 at 72 h [2]
O=C1CNCc2cc(/C=C/C(=O)N3C[C@H]4CC(c5ccccc5)=C[C@H]4C3)cnc2N1 (single isomer, unassigned) [compound 46] | 0.924 µM | 0.23 µg/mL (≈ 0.574 µM) | 0.27 µg/mL | – | – | > 4.05 µg/mL
O=C1COCc2cc(/C=C/C(=O)N3C[C@H]4CC(c5ccccc5)=C[C@H]4C3)cnc2N1 (single isomer, unassigned) [compound 53] | 1.47 µM | 0.37 µg/mL (≈ 0.922 µM) | 0.7 µg/mL | 272.58 °C | – | > 10.1 µg/mL
O=C1Nc2ncc(/C=C/C(=O)N3CC4C=C(c5ccccc5)CC4C3)cc2Cn2cncc21 (centres unmarked) [Compound K11] | – | – | – | 220 to 270 °C | – | –
Cc1cncc(C(=O)Nc2ccc(/C=C/C(=O)N3CC4C=C(c5nccs5)CC4C3)cn2)c1 (centres unmarked) [compound 6] | – | < 0.22 µg/mL | < 0.22 µg/mL | 230.99 °C and 231 °C | – | > 11.5 µg/mL
Cc1nc(N)ccc1/C=C/C(=O)N1CC2C=C(c3ccccc3)CC2C1 (centres unmarked) [compound 21] | 6.77 µM | > 21.8 µg/mL | > 21.8 µg/mL | – | – | 3.11 µg/mL (≈ 9 µM)
N#Cc1cc(N)ncc1/C=C/C(=O)N1CC2C=C(c3ccccc3)CC2C1 (centres unmarked) [compound 22] | ~33.9 µM | > 22.5 µg/mL | > 22.5 µg/mL | – | – | > 8.95 µg/mL
COc1ccc(C(=O)Nc2ccc(/C=C/C(=O)N3CC4C=C(c5ccccc5)CC4C3)cn2)c(OC)n1 (centres unmarked) [compound 28] | 14.8 µM | > 31.3 µg/mL | > 31.3 µg/mL | – | – | 2.99 µg/mL (≈ 6.02 µM)
O=C(Nc1ccc(/C=C/C(=O)N2CC3C=C(c4ccccc4)CC3C2)cn1)c1cc(F)c(Cl)nc1Cl (centres unmarked) [compound 29] | 9.32 µM | > 33 µg/mL | > 33 µg/mL | – | – | 2.34 µg/mL (≈ 4.47 µM)
O=C1CNCc2cc(/C=C/C(=O)N3CC4C=C(c5ccsc5)CC4C3)cnc2N1 (centres unmarked) [compound 40] | 0.959 µM | < 0.19 µg/mL | < 0.19 µg/mL | – | – | > 10.2 µg/mL
CC1(C)Oc2cc(/C=C/C(=O)N3CC4C=C(c5ccccc5)CC4C3)cnc2NC1=O (centres unmarked) [compound 42] | – | < 0.2 µg/mL | < 0.2 µg/mL | – | – | –
CC1(C)Oc2cc(/C=C/C(=O)N3CC4C=C(c5ccccc5)CC4C3)cnc2NC1=O (centres unmarked) [compound 43] | – | – | – | – | <0.20 µg/mL | –
CC1(C)Oc2cc(/C=C/C(=O)N3CC4C=C(c5nccs5)CC4C3)cnc2NC1=O (centres unmarked) [compound 44] | – | < 0.2 µg/mL | < 0.2 µg/mL | – | – | –
Cn1nccc1C1=CC2CN(C(=O)/C=C/c3cnc4c(c3)OC(C)(C)C(=O)N4)CC2C1 (centres unmarked) [compound 45] | – | < 0.2 µg/mL | < 0.2 µg/mL | – | – | –
C=CCN1C[C@@H]2CN(C(=O)/C=C/c3cnc4c(c3)CN(C)CC(=O)N4)C[C@@H]2C1 [compound 61] | > 50.1 µM | > 24.1 µg/mL | > 24.1 µg/mL | – | – | > 9.58 µg/mL
CN1CC(=O)Nc2ncc(/C=C/C(=O)N3C[C@@H]4CN(c5cccnc5)C[C@@H]4C3)cc2C1 [compound 62] | 7.41 µM | > 26.4 µg/mL | > 26.4 µg/mL | – | – | > 10.5 µg/mL
O=C1Nc2ncc(/C=C/C(=O)N3CC4C=C(c5ccccc5)CC4C3)cc2Cn2cncc21 (centres unmarked) [compound 71] | 1.1 µM | < 0.21 µg/mL | < 0.21 µg/mL | – | – | 6.78 µg/mL (≈ 15.5 µM)
O=C1Nc2ncc(/C=C/C(=O)N3CC4C=C(c5ccccc5)CC4C3)cc2C(=O)N2CCNCC12 (centres unmarked) [compound 81] | – | 0.45 µg/mL (≈ 0.958 µM) | 0.43 µg/mL | 230 to 232 °C | – | –
CC(=O)N1CCN2Cc3cc(/C=C/C(=O)N4CC5C=C(c6ccncc6)CC5C4)cnc3NC(=O)C2C1 (centres unmarked) [compound 84] | 1.34 µM | 0.92 µg/mL (≈ 1.85 µM) | 0.87 µg/mL | – | – | > 12.5 µg/mL
O=C1Nc2ncc(/C=C/C(=O)N3CC4C=C(c5ccccc5)CC4C3)cc2Cn2nccc21 (centres unmarked) [compound 86] | 1.83 µM | 3.47 µg/mL (≈ 7.93 µM) | 3.81 µg/mL | – | – | –
O=C1Nc2ncc(/C=C/C(=O)N3C[C@@H]4CN(c5ccccc5)C[C@@H]4C3)cc2CN2CCOCC12 (some centres unmarked) [compound 87] | – | – | – | > 250 °C | – | –
CCOC(=O)N1CCN2Cc3cc(/C=C/C(=O)N4CC5C=C(c6ccccc6)CC5C4)cnc3NC(=O)C2C1 (centres unmarked) [compound 88] | – | – | – | 242 to 267 °C | – | –

Further lines, with some results ahead:

IC50 [1] | IC90 [3] | IC90 (S. aureus) | melting point | STA (361.159) IC90 ([3]; Staphylococcus aureus ATCC 29213, broth microdilution) | Compound | CC50 at 72 h [2]
2.4 µM | < 0.22 µg/mL | 0.42 µg/mL | – | – | COc1cncc(C(=O)Nc2ccc(/C=C/C(=O)N3CC4C=C(c5ccccc5)CC4C3)cn2)c1 (centres unmarked) [Cpd. No. 7] | > 11.7 µg/mL
– | < 0.21 µg/mL | 0.28 µg/mL | 236.37 °C and 236 °C | – | O=C(Nc1ccc(/C=C/C(=O)N2CC3C=C(c4ccsc4)CC3C2)cn1)c1cccnc1 (centres unmarked) [compound 4] | 0.97 µg/mL (≈ 2.19 µM)
8.31 µM | > 21.8 µg/mL | > 21.8 µg/mL | – | – | Cc1cc(N)ncc1/C=C/C(=O)N1CC2C=C(c3ccccc3)CC2C1 (centres unmarked) [compound 20] | 4.55 µg/mL (≈ 13.2 µM)
15.5 µM | > 25.5 µg/mL | > 25.5 µg/mL | – | – | COc1nc(NC(C)=O)ccc1/C=C/C(=O)N1CC2C=C(c3ccccc3)CC2C1 (centres unmarked) [compound 23] | > 10.1 µg/mL
3.46 µM | > 27.5 µg/mL | > 27.5 µg/mL | – | – | O=C(Nc1ccc(/C=C/C(=O)N2CC3C=C(c4ccccc4)CC3C2)cn1)c1ccccn1 (centres unmarked) [compound 24] | 7.76 µg/mL (≈ 17.8 µM)
14.4 µM | > 28.4 µg/mL | > 28.4 µg/mL | – | – | Cc1nc(NC(=O)c2cccnc2)ccc1/C=C/C(=O)N1CC2C=C(c3ccccc3)CC2C1 (centres unmarked) [compound 25] | > 11.3 µg/mL
10.2 µM | > 28.4 µg/mL | > 28.4 µg/mL | – | – | Cc1cc(NC(=O)c2cccnc2)ncc1/C=C/C(=O)N1CC2C=C(c3ccccc3)CC2C1 (centres unmarked) [compound 26] | > 11.3 µg/mL
20.9 µM | > 29.1 µg/mL | > 29.1 µg/mL | – | – | N#Cc1cc(NC(=O)c2cccnc2)ncc1/C=C/C(=O)N1CC2C=C(c3ccccc3)CC2C1 (centres unmarked) [compound 27] | > 11.6 µg/mL
2.95 µM | > 33.8 µg/mL | > 33.8 µg/mL | – | – | O=C(Nc1ncc(/C=C/C(=O)N2CC3C=C(c4ccccc4)CC3C2)cc1CN1CCOCC1)c1cccnc1 (centres unmarked) [compound 34] | 12.6 µg/mL (≈ 23.4 µM)

From patent US9315522B2, “Antibacterial compounds” (JANSSEN SCIENCES IRELAND UC, priority 2012, dated 2016)
